These results are taken from US20260274892A1, “MACROCYCLIC BROAD SPECTRUM ANTIBIOTICS” (RQx Pharmaceuticals, Inc., priority 2017, published 2026).

As a reminder, the MIC is the least concentration at which growth counts as inhibited.

SMILES strings stand for the structures.

Test [1] relates to Methicillin Resistant Staphylococcus aureus strain USA 200. As to the kind of experiment: Minimum inhibitory concentration (MIC), CLSI broth micro-dilution, S. aureus. In kind it is cell-based. The conditions noted are these: Staphylococcus aureus, MRSA / USA200; Table 6; MRSA USA 200; cation adjusted Mueller Hinton Broth + 0.002% Tween-80; 35° C., 22 hours. The essentials:
(§1)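 Antibacterial potency is measured as MIC by the CLSI broth dilution method. Bacteria at OD600 0.0005 in Tween-80-supplemented cation-adjusted Mueller Hinton broth face ten twofold compound dilutions for 22 h at 35° C.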

In test [2] the test system is Escherichia coli ATCC 25922. As to the kind of experiment: Minimum inhibitory concentration (MIC), CLSI broth micro-dilution, E. coli. The conditions noted are these: Escherichia coli, ATCC25922, 22 h, Table 6, cation adjusted Mueller Hinton Broth + 0.002% Tween-80, 35° C. In kind it is cell-based. The procedure, abridged:
as §1
(In general: Dilution methods test growth across graded concentrations, often in twofold steps.)

With `C[C@@H]1NC(=O)[C@@H](N(C)C(=O)[C@H](CCN)NC(=O)[C@H]2CC[C@H](c3ccc(C(C)(C)C)cc3)CC2)c2ccc(OCCN)c(c2)-c2cc(ccc2OCCN)C[C@@H](C(=O)NCC#N)NC1=O` [Compound 391, rac-(8S,11S,14S)-3,18-bis(2-aminoethoxy)-N-(cyanomethyl)-11-methyl-14-[methyl-[rac-(2S)-4-amino-2-[[4-(4-tert-butylphenyl)cyclohexanecarbonyl]amino]butanoyl]amino]-10,13-dioxo-9,12-diazatricyclo[13.3.1.12,6]icosa-1(18),2(20),3,5,15(19),16-hexaene-8-carboxamide], the results for the MIC in test [1] and in test [2] were 0.031 µM and 0.25 µM, respectively.

For `C[C@@H]1NC(=O)[C@@H](N(C)C(=O)[C@H](CCN)NC(=O)[C@H]2CC[C@@H](c3ccc(C(C)(C)C)cc3)CC2)c2ccc(OCCN)c(c2)-c2cc(ccc2OCCN)C[C@@H](C(=O)NCC#N)NC1=O` [Compound 392, rac-(8S,11S,14S)-3,18-bis(2-aminoethoxy)-N-(cyanomethyl)-11-methyl-14-[methyl-[rac-(2S)-4-amino-2-[[4-(4-tert-butylphenyl)cyclohexanecarbonyl]amino]butanoyl]amino]-10,13-dioxo-9,12-diazatricyclo[13.3.1.12,6]icosa-1(18),2(20),3,5,15(19),16-hexaene-8-carboxamide], the MIC was 0.063 µM in test [1] and 3 µM in test [2].

For `CCc1nc(-c2ccc(C(C)(C)C)cc2)nc(C)c1C(=O)N[C@@H](CCN)C(=O)N(C)[C@@H]1C(=O)N[C@@H](C)C(=O)N[C@H](C(=O)NCC#N)Cc2ccc(OCCN)c(c2)-c2cc1ccc2OCCN` [Compound 485], the minimum inhibitory concentration (MIC) in test [1] is 0.023 µM; in test [2] it was 0.5 µM.

Regarding `CCCc1nc(-c2ccc(C(C)(C)C)cc2)nc(C)c1C(=O)N[C@@H](CCN)C(=O)N(C)[C@@H]1C(=O)N[C@@H](C)C(=O)N[C@H](C(=O)NCC#N)Cc2ccc(OCCN)c(c2)-c2cc1ccc2OCCN` [Compound 486], the MIC in test [1] came out at 0.023 µM; in test [2] it was 0.38 µM.

For the compound `Cc1nc(-c2ccc(C(C)(C)C)cc2)nc(C(C)C)c1C(=O)N[C@@H](CCN)C(=O)N(C)[C@@H]1C(=O)N[C@@H](C)C(=O)N[C@H](C(=O)NCC#N)Cc2ccc(OCCN)c(c2)-c2cc1ccc2OCCN` [Compound 487], the values for the MIC in test [1] and in test [2] were 0.016 µM and 0.38 µM, respectively.

For `CNc1nc(-c2ccc(C(C)(C)C)cc2)ncc1C(=O)N[C@@H](CCN)C(=O)N(C)[C@@H]1C(=O)N[C@@H](C)C(=O)N[C@H](C(=O)NCC#N)Cc2ccc(OCCN)c(c2)-c2cc1ccc2OCCN` [Compound 489], the minimal inhibitory concentration (MIC) in test [1] came to 0.016 µM; in test [2], 0.38 µM.

With `C[C@@H]1NC(=O)[C@@H](N(C)C(=O)[C@H](CCN)NC(=O)c2cnc(-c3ccc(C(C)(C)C)cc3)nc2N(C)C)c2ccc(OCCN)c(c2)-c2cc(ccc2OCCN)C[C@@H](C(=O)NCC#N)NC1=O` [Compound 490], the minimum inhibitory concentration (MIC) in test [1] was found to be 0.023 µM; in test [2] it was 1 µM.

With `Cc1nc(-c2ccc(C(C)(C)C)cc2)nc(C)c1C(=O)N[C@@H](CC(C)(C)N)C(=O)N(C)[C@@H]1C(=O)N[C@@H](C)C(=O)N[C@H](C(=O)NCC#N)Cc2ccc(OCCN)c(c2)-c2cc1ccc2OCCN` [Compound 492, (8S,11S,14S)-14-[[(2S)-4-amino-2-[[2-(4-tert-butylphenyl)-4,6-dimethyl-pyrimidine-5-carbonyl]amino]-4-methyl-pentanoyl]-methyl-amino]-3,18-bis(2-aminoethoxy)-N-(cyanomethyl)-11-methyl-10,13-dioxo-9,12-diazatricyclo[13.3.1.12,6]icosa-1(18),2(20),3,5,15(19),16-hexaene-8-carboxamide], the values for the minimum inhibitory concentration (MIC) in test [1] and in test [2] were 0.016 µM and 2 µM, respectively.

In the case of `Cc1nc(-c2ccc(OC3CCCCC3)cc2)nc(C)c1C(=O)N[C@@H](CCNS(C)(=O)=O)C(=O)N(C)[C@@H]1C(=O)N[C@@H](C)C(=O)N[C@H](C(=O)NCC#N)Cc2ccc(OCCN)c(c2)-c2cc1ccc2OCCN` [Compound 497, (8S,11S,14S)-3,18-bis(2-aminoethoxy)-N-(cyanomethyl)-14-[[(2S)-2-[[2-[4-(cyclohexoxy)phenyl]-4,6-dimethyl-pyrimidine-5-carbonyl]amino]-4-(methanesulfonamido)butanoyl]-methyl-amino]-11-methyl-10,13-dioxo-9,12-diazatricyclo[13.3.1.12,6]icosa-1(18),2(20),3,5,15(19),16-hexaene-8-carboxamide], the minimum inhibitory concentration (MIC) came out at 0.047 µM in test [1] and 0.75 µM in test [2].

For `Cc1nc(-c2ccc(OC3CCCCC3)cc2)nc(C)c1C(=O)N[C@@H](CCNC(N)=O)C(=O)N(C)[C@@H]1C(=O)N[C@@H](C)C(=O)N[C@H](C(=O)NCC#N)Cc2ccc(OCCN)c(c2)-c2cc1ccc2OCCN` [Compound 498, (8S,11S,14S)-3,18-bis(2-aminoethoxy)-N-(cyanomethyl)-14-[[(2S)-2-[[2-[4-(cyclohexoxy)phenyl]-4,6-dimethyl-pyrimidine-5-carbonyl]amino]-4-ureido-butanoyl]-methyl-amino]-11-methyl-10,13-dioxo-9,12-diazatricyclo[13.3.1.12,6]icosa-1(18),2(20),3,5,15(19),16-hexaene-8-carboxamide], the MIC in test [1] is 0.063 µM; in test [2] it was 1 µM.

Take `Cc1nc(-c2ccc(OC3CCCCC3)cc2)nc(C)c1C(=O)N[C@@H](CNC(N)=O)C(=O)N(C)[C@@H]1C(=O)N[C@@H](C)C(=O)N[C@H](C(=O)NCC#N)Cc2ccc(OCCN)c(c2)-c2cc1ccc2OCCN` [Compound 499, (8S,11S,14S)-3,18-bis(2-aminoethoxy)-N-(cyanomethyl)-14-[[(2S)-2-[[2-[4-(cyclohexoxy)phenyl]-4,6-dimethyl-pyrimidine-5-carbonyl]amino]-3-ureido-propanoyl]-methyl-amino]-11-methyl-10,13-dioxo-9,12-diazatricyclo[13.3.1.12,6]icosa-1(18),2(20),3,5,15(19),16-hexaene-8-carboxamide]: the figures for the minimal inhibitory concentration (MIC) in test [1] and in test [2] were 0.063 µM and 1.5 µM, respectively.

On to `Cc1nc(-c2ccc(OC3CCCCC3)cc2)nc(C)c1C(=O)N[C@@H](CCNS(N)(=O)=O)C(=O)N(C)[C@@H]1C(=O)N[C@@H](C)C(=O)N[C@H](C(=O)NCC#N)Cc2ccc(OCCN)c(c2)-c2cc1ccc2OCCN` [Compound 500, (8S,11S,14S)-3,18-bis(2-aminoethoxy)-N-(cyanomethyl)-14-[[(2S)-2-[[2-[4-(cyclohexoxy)phenyl]-4,6-dimethyl-pyrimidine-5-carbonyl]amino]-4-(sulfamoylamino)butanoyl]-methyl-amino]-11-methyl-10,13-dioxo-9,12-diazatricyclo[13.3.1.12,6]icosa-1(18),2(20),3,5,15(19),16-hexaene-8-carboxamide], for which the minimum inhibitory concentration (MIC) came out at 0.031 µM in test [1] and 0.48 µM in test [2].

On to `Cc1nc(-c2ccc(OC3CCCCC3)cc2)nc(C)c1C(=O)N[C@@H](CCCNC(N)=O)C(=O)N(C)[C@@H]1C(=O)N[C@@H](C)C(=O)N[C@H](C(=O)NCC#N)Cc2ccc(OCCN)c(c2)-c2cc1ccc2OCCN` [Compound 501, (8S,11S,14S)-3,18-bis(2-aminoethoxy)-N-(cyanomethyl)-14-[[(2S)-2-[[2-[4-(cyclohexoxy)phenyl]-4,6-dimethyl-pyrimidine-5-carbonyl]amino]-5-ureido-pentanoyl]-methyl-amino]-11-methyl-10,13-dioxo-9,12-diazatricyclo[13.3.1.12,6]icosa-1(18),2(20),3,5,15(19),16-hexaene-8-carboxamide], for which the figures for the MIC in test [1] and in test [2] were 0.063 µM and 1 µM, respectively.

With `Cc1nc(-c2ccc(OC3CCCCC3)cc2)nc(C)c1C(=O)N[C@@H](CCCNS(N)(=O)=O)C(=O)N(C)[C@@H]1C(=O)N[C@@H](C)C(=O)N[C@H](C(=O)NCC#N)Cc2ccc(OCCN)c(c2)-c2cc1ccc2OCCN` [Compound 503, (8S,11S,14S)-3,18-bis(2-aminoethoxy)-N-(cyanomethyl)-14-[[(2S)-2-[[2-[4-(cyclohexoxy)phenyl]-4,6-dimethyl-pyrimidine-5-carbonyl]amino]-5-(sulfamoylamino)pentanoyl]-methyl-amino]-11-methyl-10,13-dioxo-9,12-diazatricyclo[13.3.1.12,6]icosa-1(18),2(20),3,5,15(19),16-hexaene-8-carboxamide], the figures for the MIC in test [1] and in test [2] were 0.047 µM and 1 µM, respectively.

For `Cc1nc(-c2ccc(OC3CCCCC3)cc2)nc(C)c1C(=O)N[C@@H](CO)C(=O)N(C)[C@@H]1C(=O)N[C@@H](C)C(=O)N[C@H](C(=O)NCC#N)Cc2ccc(OCCN)c(c2)-c2cc1ccc2OCCN` [Compound 507, (8S,11S,14S)-3,18-bis(2-aminoethoxy)-N-(cyanomethyl)-14-[[(2S)-2-[[2-[4-(cyclohexoxy)phenyl]-4,6-dimethyl-pyrimidine-5-carbonyl]amino]-3-hydroxy-propanoyl]-methyl-amino]-11-methyl-10,13-dioxo-9,12-diazatricyclo[13.3.1.12,6]icosa-1(18),2(20),3,5,15(19),16-hexaene-8-carboxamide], the figures for the MIC in test [1] and in test [2] were 0.063 µM and 0.38 µM, respectively.

`Cc1nc(-c2ccc(OC3CCCCC3)cc2)nc(C)c1C(=O)N[C@H](CO)C(=O)N(C)[C@@H]1C(=O)N[C@@H](C)C(=O)N[C@H](C(=O)NCC#N)Cc2ccc(OCCN)c(c2)-c2cc1ccc2OCCN` [Compound 508, (8S,11S,14S)-3,18-bis(2-aminoethoxy)-N-(cyanomethyl)-14-[[(2R)-2-[[2-[4-(cyclohexoxy)phenyl]-4,6-dimethyl-pyrimidine-5-carbonyl]amino]-3-hydroxy-propanoyl]-methyl-amino]-11-methyl-10,13-dioxo-9,12-diazatricyclo[13.3.1.12,6]icosa-1(18),2(20),3,5,15(19),16-hexaene-8-carboxamide]: the MIC in test [1] amounted to 1 µM; in test [2], 6 µM.
